Key:
EGFR^WT kinase = target: T1, EGFR^WT kinase (Homo sapiens, UniProt P00533); assay: EGFR^WT kinase assay (ULight peptide / Eu-PT66 antibody detection); assay type: biochemical
T1 construct: purchased Carna Biosciences 08-115
Text: (§1) Reagents and consumables: ULight™-labeled Ploy GT Peptide (Perkin Elmer, Cat. No. TRF-0100-M); ULight™-labeled JAK-1 (Try1023) Peptide (Perkin Elmer, Cat. No. TRF-0121-M); Eu-W1024-labeled Anti-Phosphotyrosine Antibody (PT66) (Perkin Elmer, Cat. No. AD0068); 10×Detection Buffer (Perkin Elmer, Cat. No. CR97-100); HER2 Kinase (Carna Biosciences, Cat. No. 08-016); EGFR kinase (Carna Biosciences, Cat. No. 08-115); HEPES (GIBCO, Cat. No. 15630-080); EGTA (Sigma, Cat. No. 03777-10G); EDTA (Sigma, Cat. No. EDS-100G); MgCl2 (Sigma, Cat. No. 63069-100ML); DTT (Sigma, Cat. No. 43816-10ML); Tween-20 (Sigma, Cat. No. P7949-100ML); DMSO (Life Science, Cat. No. 0231-500ML); 384-well plates (Perkin Elmer, Cat. No. 607290); multifunctional plate reader (Perkin Elmer, Cat. No. Envision)
(§2) Preparation of compound solution: The assay compound was dissolved in DMSO to form a 10 mM stock solution. Prior to use, the compound was diluted to 0.25 mM in DMSO (100 times the final concentration of the diluent) and then subjected to a 3-fold concentration gradient dilution to obtain a total of 11 concentrations. The solution was diluted with buffer to a diluent with 4× the final concentration when the drug was added.
(§3) EGFR^WT kinase assay: buffer was prepared, and 3.48 nM 4× EGFR kinase solution, 600 μM 4× ATP solution, and 400 nM 4×ULight™-labeled JAK-1 (Try1023) Peptide substrate solution was prepared using the buffer. After the preparation was completed, the enzyme was mixed with different concentrations of compounds pre-prepared by dilution, and the mixture was left to stand at room temperature for 5 min. Each concentration was performed in duplicate. The corresponding substrate and ATP were added and the mixture was reacted at room temperature for 120 minutes (with negative and positive controls). After completion of the reaction, PT66 detection antibody was added. The mixture was incubated at room temperature for 60 minutes, and then detected by Envision.
(§4) Data Calculation: the reading of well and inhibition rate were calculated using Excel, wherein reading of well=10000*(well EU665 value)/(well EU615 value), and inhibition rate=[(reading of positive control well−reading of assay well)/(reading of positive control well−reading of negative control well)]*100%. Compound concentrations and corresponding inhibition rates were input into GraphPad Prism for processing to calculate IC50 values.

HER2 kinase = target: T2, HER2 kinase (Homo sapiens, UniProt P04626); assay: HER2 kinase assay (ULight peptide / Eu-PT66 antibody detection); assay type: biochemical
T2 construct: purchased Carna Biosciences 08-016
Text: as §1, §2
as §3, with “HER2 kinase” for “EGFR^WT kinase”, “and 40” for “and 3.48”, “4× HER2” for “4× EGFR”, “solution, 40” for “solution, 600”, “4×ULight™-labeled Ploy GT” for “4×ULight™-labeled JAK-1 (Try1023)”, “solution were” for “solution was”
as §4

HCC-827 cells = assay: Inhibition of cell proliferation, CTG method, HCC-827; assay type: cell-based; settings: Homo sapiens, HCC827, 72 hours
Text: (§5) The present application examined the in vitro anti-proliferative activity of the compounds of the present disclosure against in vitro cultured HCC-827, Ba/F3-EGFR-VIII and Ba/F3 EGFR D770_N771insSVD cell lines by CTG method.
(§6) Reagents and consumables: RPMI1640 (ThermoFisher, Cat. No. C11875500BT); DMEM (ThermoFisher, C11995500BT); fetal bovine serum (Hyclone, Cat. No. SV30087.03); 0.25% trypsin-EDTA (ThermoFisher, Cat. No. 25200072); penicillin-streptomycin (Hyclone, Cat. No. SV30010); DMSO (Life Science, Cat. No. 0231-500ML); CTG assay kit (Promega, Cat. No. G9243); 96-well plate (Corning, Cat. No. 3599); multifunctional plate reader (Perkin Elmer, Cat. No. Envision)
(§7) Cell lines: HCC-827 (from ATCC), Ba/F3-EGFR-VIII and Ba/F3 EGFR D770_N771insSVD (all from KYinno Biotechnology (Beijing) Co., Ltd.); all of the above cells were cultured with RPMI1640 medium containing 10% fetal bovine serum, 100 U/mL penicillin, and 100 μg/mL streptomycin in the culture process, and HCC-827 was cultured with DMEM medium containing 10% fetal bovine serum, 100 U/mL penicillin, and 100 μg/mL streptomycin.
(§8) • 1. The assay compound was dissolved with DMSO to form a stock solution and a gradient dilution was performed, followed by dilution with the corresponding medium to obtain a solution with 5-fold working concentration. • 2. Cells in logarithmic growth phase were adjusted to specific cell densities by dilution with culture medium, and 80 μL of cell suspension was added to a 96-well plate, such that plating densities of cells of HCC-827, Ba/F3-EGFR-VIII and Ba/F3 EGFR D770_N771insSVD were all 3000 cells/well. The cells of Ba/F3-EGFR-VIII and Ba/F3 EGFR D770_N771insSVD were used directly in the next step (treatment with compound), whereas the HCC-827 needed to be cultured overnight in a 37° C., 5% carbon dioxide gas incubator to adhere to the wall, and then treated with compounds. • 3. 20 μL of compound solution was added to each well of the 96-well plate that had been inoculated with cells. The highest concentration of the assayed compound was 10 μM, 4-fold serial dilution, a total of 9 concentrations, and duplicate wells. A control group without compound was also set up. • 4. The cells were cultured for another 72 hours, and then cell viability was detected by CTG assay kit. Signal values were read with a multifunctional plate reader (Perkin Elmer). GraphPad Prism software was used to create a dose-response curve and IC50 was calculated.

[1] = target: Ba/F3 EGFR D770_N771insSVD cells (Homo sapiens, UniProt P00533, DUP768-770, cells depend on it); assay: Inhibition of cell proliferation, CTG method, Ba/F3 EGFR D770_N771insSVD; assay type: cell-based; settings: 72 hours, read-out: Ba/F3 EGFR D770_N771insSVD IC50
Text: as §5, §6, §7, §8

Ba/F3-EGFR-VIII cells = Ba/F3-EGFR-VIII cells (Homo sapiens, UniProt P00533, DELINS30-297G, cells depend on it); assay: Inhibition of cell proliferation, CTG method, Ba/F3-EGFR-VIII; assay type: cell-based; settings: 72 hours, read-out: Ba/F3 EGFRvIII IC50
Text: as §5, §6, §7, §8

Chain of Ba/F3-EGFR-VIII cells (P00533 with tags, fused parts or gaps DELINS30-297G): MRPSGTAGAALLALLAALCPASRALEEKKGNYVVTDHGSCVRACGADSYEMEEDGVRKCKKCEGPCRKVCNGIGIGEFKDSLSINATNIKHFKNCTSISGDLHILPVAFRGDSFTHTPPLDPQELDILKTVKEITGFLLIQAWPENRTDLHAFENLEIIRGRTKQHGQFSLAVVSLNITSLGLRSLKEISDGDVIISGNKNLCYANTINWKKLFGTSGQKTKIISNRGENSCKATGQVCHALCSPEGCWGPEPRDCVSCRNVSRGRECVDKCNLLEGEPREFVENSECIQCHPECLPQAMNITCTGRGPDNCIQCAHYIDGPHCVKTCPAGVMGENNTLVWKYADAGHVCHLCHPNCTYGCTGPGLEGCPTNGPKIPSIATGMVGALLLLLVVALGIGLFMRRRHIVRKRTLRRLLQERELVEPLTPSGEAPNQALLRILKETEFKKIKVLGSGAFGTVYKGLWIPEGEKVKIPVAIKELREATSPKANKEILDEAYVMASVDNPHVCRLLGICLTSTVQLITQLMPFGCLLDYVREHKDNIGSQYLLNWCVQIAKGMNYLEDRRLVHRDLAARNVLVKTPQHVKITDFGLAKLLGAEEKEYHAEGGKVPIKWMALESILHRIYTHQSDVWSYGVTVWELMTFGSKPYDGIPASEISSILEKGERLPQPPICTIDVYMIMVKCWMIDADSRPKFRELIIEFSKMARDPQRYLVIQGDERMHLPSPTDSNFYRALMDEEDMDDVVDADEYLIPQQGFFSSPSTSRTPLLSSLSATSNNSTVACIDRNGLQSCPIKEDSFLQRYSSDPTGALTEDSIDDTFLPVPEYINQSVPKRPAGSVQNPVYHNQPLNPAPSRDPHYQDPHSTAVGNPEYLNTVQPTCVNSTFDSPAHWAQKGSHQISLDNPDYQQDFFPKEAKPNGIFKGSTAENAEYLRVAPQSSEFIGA
T2 sequence (P04626 23-1255): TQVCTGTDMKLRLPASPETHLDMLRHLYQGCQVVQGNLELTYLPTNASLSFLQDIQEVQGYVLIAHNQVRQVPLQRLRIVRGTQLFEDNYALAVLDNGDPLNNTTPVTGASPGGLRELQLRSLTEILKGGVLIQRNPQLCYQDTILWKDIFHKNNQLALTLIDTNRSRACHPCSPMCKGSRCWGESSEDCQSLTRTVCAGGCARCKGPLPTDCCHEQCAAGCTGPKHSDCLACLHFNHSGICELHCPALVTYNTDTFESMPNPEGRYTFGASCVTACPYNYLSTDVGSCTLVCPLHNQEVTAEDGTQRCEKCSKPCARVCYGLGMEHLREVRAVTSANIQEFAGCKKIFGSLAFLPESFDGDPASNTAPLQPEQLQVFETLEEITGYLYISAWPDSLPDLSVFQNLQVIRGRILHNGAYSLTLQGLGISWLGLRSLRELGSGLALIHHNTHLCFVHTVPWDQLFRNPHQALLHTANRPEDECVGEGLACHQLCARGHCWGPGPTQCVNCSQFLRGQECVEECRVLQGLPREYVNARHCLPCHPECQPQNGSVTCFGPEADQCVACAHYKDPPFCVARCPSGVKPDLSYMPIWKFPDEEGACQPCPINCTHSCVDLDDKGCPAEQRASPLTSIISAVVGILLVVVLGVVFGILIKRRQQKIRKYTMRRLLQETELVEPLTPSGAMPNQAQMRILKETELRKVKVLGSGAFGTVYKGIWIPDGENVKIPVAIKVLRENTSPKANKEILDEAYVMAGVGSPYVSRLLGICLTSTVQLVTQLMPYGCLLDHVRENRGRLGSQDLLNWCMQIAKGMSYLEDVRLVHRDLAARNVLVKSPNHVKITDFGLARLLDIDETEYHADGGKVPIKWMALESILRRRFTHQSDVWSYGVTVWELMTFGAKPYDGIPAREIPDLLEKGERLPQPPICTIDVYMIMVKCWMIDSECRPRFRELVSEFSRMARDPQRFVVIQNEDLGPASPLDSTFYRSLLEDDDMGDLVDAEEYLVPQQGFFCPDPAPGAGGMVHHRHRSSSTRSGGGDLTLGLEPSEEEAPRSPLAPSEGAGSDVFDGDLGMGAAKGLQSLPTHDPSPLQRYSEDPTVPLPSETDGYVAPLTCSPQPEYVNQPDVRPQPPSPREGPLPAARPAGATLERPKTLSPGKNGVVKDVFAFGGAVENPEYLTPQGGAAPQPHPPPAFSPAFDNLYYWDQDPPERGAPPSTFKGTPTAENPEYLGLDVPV
T1 sequence (P00533 25-1210): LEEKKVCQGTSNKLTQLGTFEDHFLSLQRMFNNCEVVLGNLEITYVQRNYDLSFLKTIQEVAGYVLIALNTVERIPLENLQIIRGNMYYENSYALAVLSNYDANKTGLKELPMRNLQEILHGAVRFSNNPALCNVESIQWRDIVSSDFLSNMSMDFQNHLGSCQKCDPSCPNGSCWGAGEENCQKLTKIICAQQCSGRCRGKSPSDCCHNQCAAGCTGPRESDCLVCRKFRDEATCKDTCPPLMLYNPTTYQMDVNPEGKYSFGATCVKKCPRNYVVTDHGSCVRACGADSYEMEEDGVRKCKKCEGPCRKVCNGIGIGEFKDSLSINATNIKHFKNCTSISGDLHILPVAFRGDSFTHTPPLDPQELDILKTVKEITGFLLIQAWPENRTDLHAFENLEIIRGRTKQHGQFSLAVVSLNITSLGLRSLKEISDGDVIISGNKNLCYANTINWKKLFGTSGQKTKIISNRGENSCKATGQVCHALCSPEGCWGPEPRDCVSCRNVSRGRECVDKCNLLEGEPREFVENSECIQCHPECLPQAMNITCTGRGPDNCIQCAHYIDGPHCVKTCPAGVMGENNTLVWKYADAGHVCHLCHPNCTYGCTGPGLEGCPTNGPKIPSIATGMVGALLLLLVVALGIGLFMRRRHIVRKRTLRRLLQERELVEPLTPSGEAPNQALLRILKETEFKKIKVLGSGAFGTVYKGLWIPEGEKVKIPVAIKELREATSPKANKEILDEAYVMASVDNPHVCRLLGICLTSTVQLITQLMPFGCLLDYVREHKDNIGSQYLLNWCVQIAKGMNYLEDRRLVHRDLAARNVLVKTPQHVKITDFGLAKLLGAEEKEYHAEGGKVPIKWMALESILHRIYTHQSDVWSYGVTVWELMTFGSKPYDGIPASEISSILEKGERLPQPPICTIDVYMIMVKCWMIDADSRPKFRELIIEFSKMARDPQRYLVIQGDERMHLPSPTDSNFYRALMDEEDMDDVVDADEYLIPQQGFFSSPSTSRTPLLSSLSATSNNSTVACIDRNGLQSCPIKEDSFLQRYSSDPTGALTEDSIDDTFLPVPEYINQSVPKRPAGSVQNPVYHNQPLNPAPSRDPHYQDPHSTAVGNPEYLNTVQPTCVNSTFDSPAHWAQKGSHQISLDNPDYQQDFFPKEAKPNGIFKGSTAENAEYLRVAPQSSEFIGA
Chain of Ba/F3 EGFR D770_N771insSVD cells (P00533 with tags, fused parts or gaps DUP768-770): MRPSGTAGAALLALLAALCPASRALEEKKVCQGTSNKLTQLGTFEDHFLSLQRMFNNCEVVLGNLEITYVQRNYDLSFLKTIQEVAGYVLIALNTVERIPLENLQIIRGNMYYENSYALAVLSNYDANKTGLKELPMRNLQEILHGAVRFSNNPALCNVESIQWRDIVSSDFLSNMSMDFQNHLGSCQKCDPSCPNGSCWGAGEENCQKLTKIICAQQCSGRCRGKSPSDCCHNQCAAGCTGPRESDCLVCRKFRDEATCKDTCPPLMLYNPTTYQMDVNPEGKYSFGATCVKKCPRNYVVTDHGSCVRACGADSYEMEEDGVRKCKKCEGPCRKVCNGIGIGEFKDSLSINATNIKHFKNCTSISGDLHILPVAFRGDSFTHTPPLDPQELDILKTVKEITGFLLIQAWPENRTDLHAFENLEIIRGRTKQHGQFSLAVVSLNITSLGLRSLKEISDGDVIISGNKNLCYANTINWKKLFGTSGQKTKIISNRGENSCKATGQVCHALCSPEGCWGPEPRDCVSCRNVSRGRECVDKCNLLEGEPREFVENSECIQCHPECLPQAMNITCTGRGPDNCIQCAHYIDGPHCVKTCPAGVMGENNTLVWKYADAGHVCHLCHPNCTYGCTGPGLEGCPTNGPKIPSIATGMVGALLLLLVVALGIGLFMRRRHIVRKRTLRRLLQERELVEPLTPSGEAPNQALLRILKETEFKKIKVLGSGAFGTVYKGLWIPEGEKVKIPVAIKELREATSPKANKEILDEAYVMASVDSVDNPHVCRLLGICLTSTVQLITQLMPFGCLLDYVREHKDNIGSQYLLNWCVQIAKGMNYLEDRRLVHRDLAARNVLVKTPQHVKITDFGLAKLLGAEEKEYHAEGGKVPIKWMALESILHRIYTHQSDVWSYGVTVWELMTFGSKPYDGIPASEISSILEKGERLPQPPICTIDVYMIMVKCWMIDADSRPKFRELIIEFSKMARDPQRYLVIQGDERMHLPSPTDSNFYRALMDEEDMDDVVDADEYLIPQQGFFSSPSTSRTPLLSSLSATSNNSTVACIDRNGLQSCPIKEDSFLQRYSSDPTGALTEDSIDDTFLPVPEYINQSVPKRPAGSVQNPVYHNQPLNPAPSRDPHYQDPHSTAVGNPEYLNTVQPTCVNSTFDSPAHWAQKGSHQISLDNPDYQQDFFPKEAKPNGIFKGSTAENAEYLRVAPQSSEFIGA

Row | SMILES | IC50 (EGFR^WT kinase) [nM] | IC50 (HER2 kinase) [nM] | IC50 (HCC-827 cells) [nM] | GI50 [1] [nM] | GI50 (Ba/F3-EGFR-VIII cells) [nM]
1 | CN(C)C/C=C/C(=O)Nc1ccc2ncnc(Nc3cccc(Cl)c3F)c2c1OCC(F)(F)F [Example 16, (E)-N-(4-((3-chloro-2-fluorophenyl)amino)-5-(2,2,2-trifluoroethoxy)quinazolin-6-yl)-4-(dimethylamino)but-2-enamide] | ≤ 1 | 10 to 100 | ≤ 5 | 50 to 500 | 5 to 50
2 | CN(C)C/C=C/C(=O)Nc1ccc2ncnc(Nc3cccc(Cl)c3F)c2c1OCCC(C)(C)O [Example 14, (E)-N-(4-((3-chloro-2-fluorophenyl)amino)-5-(3-hydroxy-3-methylbutoxy)quinazolin-6-yl)-4-(dimethylamino)but-2-enamide] | 1 to 10 | 10 to 100 | ≤ 5 | 50 to 500 | 5 to 50
3 | COc1c(NC(=O)/C=C/CN(C)C2CC2)ccc2ncnc(Nc3cccc(Cl)c3F)c12 [Example 2, (E)-N-(4-((3-chloro-2-fluorophenyl)amino)-5-methoxyquinazolin-6-yl)-4-(cyclopropyl(methyl)amino)but-2-enamide] | 1 to 10 | 100 to 1000 | ≤ 5 | 50 to 500 | 5 to 50
4 | COc1c(NC(=O)/C=C/CN(C)C)ccc2ncnc(Nc3ccc(Cl)c(Cl)c3F)c12 [Example 19, (E)-N-(4-((3,4-dichloro-2-fluorophenyl)amino)-5-methoxyquinazolin-6-yl)-4-(dimethylamino)but-2-enamide] | ≤ 1 | 10 to 100 | ≤ 5 | 50 to 500 | 5 to 50

Now from value to compound:

Row | IC50 (EGFR^WT kinase) [nM] | IC50 (HER2 kinase) [nM] | IC50 (HCC-827 cells) [nM] | GI50 [1] [nM] | GI50 (Ba/F3-EGFR-VIII cells) [nM] | SMILES
5 | ≤ 1 | 10 to 100 | ≤ 5 | 50 to 500 | 5 to 50 | CN(C)C/C=C/C(=O)Nc1ccc2ncnc(Nc3cccc(Cl)c3F)c2c1OCCCF [Example 15, (E)-N-(4-((3-chloro-2-fluorophenyl)amino)-5-(3-fluoropropoxy)quinazolin-6-yl)-4-(dimethylamino)but-2-enamide]
6 | ≤ 1 | 10 to 100 | ≤ 5 | 50 to 500 | ≤ 5 | COCCOc1c(NC(=O)/C=C/CN(C)C)ccc2ncnc(Nc3cccc(Cl)c3F)c12 [Example 3, (E)-N-(4-((3-chloro-2-fluorophenyl)amino)-5-(2-methoxyethoxy)quinazolin-6-yl)-4-(dimethylamino)but-2-enamide]
7 | ≤ 1 | 10 to 100 | ≤ 5 | 50 to 500 | 5 to 50 | CN(C)C/C=C/C(=O)Nc1ccc2ncnc(Nc3cccc(Cl)c3F)c2c1OCCF [Example 4, (E)-N-(4-((3-chloro-2-fluorophenyl)amino)-5-(2-fluoroethoxy)quinazolin-6-yl)-4-(dimethylamino)but-2-enamide]
8 | ≤ 1 | 10 to 100 | ≤ 5 | 5 to 50 | ≤ 5 | CN(C)C/C=C/C(=O)Nc1ccc2ncnc(Nc3cccc(Cl)c3F)c2c1OCCO [Example 5, (E)-N-(4-((3-chloro-2-fluorophenyl)amino)-5-(2-hydroxyethoxy)quinazolin-6-yl)-4-(dimethylamino)but-2-enamide]
9 | ≤ 1 | 100 to 1000 | ≤ 5 | 50 to 500 | 5 to 50 | CN(C)C/C=C/C(=O)Nc1ccc2ncnc(Nc3cccc(Cl)c3F)c2c1OCCC(F)(F)F [Example 18, (E)-N-(4-((3-chloro-2-fluorophenyl)amino)-5-(3,3,3-trifluoropropoxy)quinazolin-6-yl)-4-(dimethylamino)but-2-enamide]
